# Measured values published in PMC10721899, “The bactericidal and antibiofilm effects of a lysine-substituted hybrid peptide, CM-10K14K, on biofilm-forming Staphylococcus epidermidis” (Scientific Reports, 2023).
# Where a name gives a salt, the structure may show the parent alone. Ends that are not written are not given here.
# Key:
# [1] = system: S. epidermidis ATCC 35984; test: Biofilm inhibition assay, crystal violet staining; type: cell-based, Staphylococcus epidermidis
# Description: The biofilm biomass was assessed using crystal violet staining to determine the ability of peptides to inhibit bacterial formation of biofilm ^1. Overnight S. epidermidis cultures were adjusted to an OD620 of 0.1 in TSB. An equal volume (50 µL) of bacterial suspension (~10^8 CFU/mL) was incubated with 2-fold serially diluted peptides (0.98-250 μg/mL) at 37°C for 24 h in 96-well plates. Supernatants were discarded after incubation, and wells were gently rinsed at least twice with 0.85% NaCl to remove planktonic cells. Adherent biofilms were fixed for 30 minutes with 95% ethanol, then the fixative solution was removed. The fixed biofilms were dried thoroughly and stained with addition of 150 µL of 0.1% crystal violet (CV) to each well containing biofilm, along with its respective control media. After 15 min, CV solutions were removed and wells were gently rinsed three times with 400 μL of 0.85% NaCl without disturbing the biofilm. The plates were left to dry for 30 min before adding 200 μL of 95% ethanol to each well to solubilize the bound CV with vigorous pipetting. The biofilm mass was evaluated by observing OD at 570 nm using a Multiskan SkyHigh microplate reader ^2. Results were expressed as the percentage of biofilm mass compared to that of control.
# [2] = system: S. epidermidis ATCC 35984 (biofilm-producer); test: microbe, parasite or virus in culture; type: cell-based, Staphylococcus epidermidis; details: for MIC, minimum inhibitory concentration: MHB; for MBC, minimum bactericidal concentration: colony count from non-turbid MIC wells
# Description: (§1) The S. epidermidis ATCC 35984 (biofilm-producer), Staphylococcus aureus ATCC 25923, Enterococcus faecalis ATCC 29219, Acinetobacter baumannii ATCC 19606, Klebsiella pneumoniae ATCC 27736 and Pseudomonas aeruginosa ATCC 27853 were grown overnight on trypticase soy agar (TSA; BD Bacto™), then subcultured in TSB and incubated at 37 °C for 16–18 h before each experiment. Stock bacterial cultures were kept frozen at − 80 °C in trypticase soy broth (TSB; BD Bacto™, USA) containing 20% glycerol.
# (§2) The antimicrobial activity of peptides against S. epidermidis and five strains of both gram-positive and gram-negative bacteria frequently involved in catheter-related infections including S. aureus, E. faecalis, A. baumannii, K. pneumoniae, and P. aeruginosa was compared to that of vancomycin (Vancomycin hydrochloride, BioChemica, UK) using a modified version of the National Committee for Clinical Laboratory Standards (NCCLS) broth microdilution method. Two-fold serially diluted (0.98–250 µg/mL) aliquots of the peptides were prepared in type 1 water and added to sterile 96-well polypropylene microplates (Nunclon Delta-Treated; Thermo Scientific™, Denmark) in a volume of 50 µL, followed by the addition of 50 µL of bacterial suspensions (2–7 × 10^5 CFU/mL) in Mueller Hinton Broth (MHB; BD Difco™, USA). Uninoculated MHB and bacterial cultures without peptides were used as negative and positive controls, respectively. After culturing in an incubator shaker for 24 h at 37 °C, the lowest concentration at which the peptide inhibited bacterial growth as observed by visual inspection was taken as the minimal inhibitory concentration (MIC)[22]. Fifty microliter aliquots from each non-turbid well identified in the MIC experiment were plated on TSA for determination of minimal bactericidal concentration (MBC) by colony count assay. […] All experiments were performed in triplicate.
# [3] = system: human red blood cells (hRBCs); test: Hemolytic activity; type: cell-based; details: 1 h at 37 °C, relative to Triton-X control
# Description: The quantity of hemoglobin released by treatment was used as a measure of a peptide’s hemolytic activity against human red blood cells (hRBCs)[23]. Venous blood was collected from a healthy volunteer in plastic blood collection tubes with lithium heparin (BD Vacutainer™, USA) and centrifuged at 2000×g for 5 min to separate the plasma and buffy coat. The hRBCs obtained were washed at least three times and diluted to 4% (vol/vol) in phosphate-buffered saline (PBS; Caisson Laboratories, USA). The same volume of the hRBC suspension (50 µL) was incubated with twofold, serially diluted concentrations (0.98–250 μg/mL) of peptide dissolved in PBS for 1 h at 37 °C. The hRBCs incubated in 0.1% Triton X-100 and PBS were used as positive (100% hemolysis) and negative (0% hemolysis) controls, respectively. The release of hemoglobin into the supernatants was monitored by measurement of absorbance at 405 nm using a Multiskan SkyHigh microplate reader (Thermo Scientific™, Singapore). The percentage of hemolysis was calculated as previously described.
# [4] = system: S. epidermidis ATCC 35984; test: Biostability: growth inhibition in the presence of proteinase K; type: cell-based, Staphylococcus epidermidis; details: 0.01 mg/mL proteinase K
# Description: Proteolysis of peptide by proteinase K was determined using the growth inhibition assay described by Jia et al.[28] with some modifications. […] After 6 and 24 h of incubation, the growth inhibitory effect was determined by measuring the absorbance at 620 nm using a Multiskan SkyHigh microplate reader. The percentage of relative survival rate was calculated as follows: Relativesurvivalrate%=AbsTreated/AbsUntreated×100 where AbsTreated was absorbance value of S. epidermidis cells after incubation with peptide in the presence of proteinase K, AbsUntreated was that of S. epidermidis cells incubated with ultrapure water in the presence of proteinase K.
# [5] = system: Acinetobacter baumannii ATCC 19606; type: cell-based
# Description: as §1, §2
# [6] = system: Enterococcus faecalis ATCC 29219; type: cell-based
# Description: as §1, §2
# [7] = system: Pseudomonas aeruginosa ATCC 27853; type: cell-based
# Description: as §1, §2
# [8] = system: Staphylococcus aureus ATCC 25923; type: cell-based
# Description: as §1, §2
# [9] = system: Klebsiella pneumoniae ATCC 27736; type: cell-based
# Description: as §1, §2
# [10] = Cytotoxicity, MTT assay; type: cell-based, mouse; details: mouse, L929 mouse fibroblast cells (NCTC clone 929), L929, 24 h, read-out: cell viability
# Description: (§3) The cytotoxicity of the candidate peptide on L929 mouse fibroblast cell lines (NCTC clone 929) were evaluated using the 3-(4,5-dimethylthiazol-2-yl)-2,5-diphenyltetrazolium bromide (MTT) assay following the published protocol. L929 cells (3–5 × 10^4) in RPMI 1640 medium, supplemented with 10% (vol/vol) heat-inactivated fetal bovine serum, 2 mM L-glutamine, 0.2% (wt/vol) sodium bicarbonate, 100 U/mL penicillin and […] streptomycin were placed into each well of 96-well plates and incubated in 5% CO2 at 37 °C overnight. After removal of media, the two-fold serially diluted peptide was added to achieve final concentrations of 0.98–250 µg/mL. Plates were then incubated at 37 °C under 5% CO2 for 24 h. The RPMI 1640 medium with and without L929 seeded cells were used as positive and negative controls, respectively. After treatment, MTT (Sigma-Aldrich, USA) was added to a final concentration of 0.5 mg/mL and suspensions incubated for 4 h at 37 °C under 5% CO2. Supernatants from each well were then discarded, and 150 µl of dimethyl sulfoxide (DMSO; Fisher BioReagents™, UK) was added and gently mixed to dissolve the crystallized formazan. Absorbance was measured at 570 nm using a Multiskan SkyHigh microplate reader. Cell viability (%) was estimated according to the following formula: Cellviability%=AbsTreated-AbsBlank/AbsUntreated-AbsBlank×100
# [11] = system: L929 mouse fibroblast cells; test: Cytotoxicity, MTT assay; type: cell-based; details: MTT, 24 h
# Description: as §3
molecule,measurement,setting,value
"CN[C@H](CC(C)C)C(=O)N[C@H]1C(=O)N[C@@H](CC(N)=O)C(=O)N[C@H]2C(=O)N[C@H]3C(=O)N[C@H](C(=O)N[C@H](C(=O)O)c4cc(O)cc(O)c4-c4cc3ccc4O)[C@H](O)c3ccc(c(Cl)c3)Oc3cc2cc(c3O[C@@H]2O[C@H](CO)[C@@H](O)[C@H](O)[C@H]2O[C@H]2C[C@](C)(N)[C@H](O)[C@H](C)O2)Oc2ccc(cc2Cl)[C@H]1O [Vancomycin, Vancomycin hydrochloride, reference compound]",effect on biofilm formation,"[1]; at its MIC and MBC, 24 h",slightly induced biofilm formation
same,reduction of the biomass of biofilms,[1]; treatment with > 15.63 µg/mL for 24 h,more than 90%
same,MIC,"[2]; Staphylococcus epidermidis, ATCC35984, MHB, 24 h at 37 °C, read-out: MIC, minimum inhibitory concentration",3.91 µg/mL
same,MBC,"[2]; Staphylococcus epidermidis, ATCC35984, colony count from non-turbid MIC wells, read-out: MBC, minimum bactericidal concentration",7.81 µg/mL
"VWKLFKKIGKVLKKL-NH2 [CM-1V10K14K, VWKLFKKIGKVLKKL-NH2]","HC50, concentration of peptide that causes 50% hemolysis",[3],118.90 ± 8.19 µg/mL
same,"MIC, minimum inhibitory concentration",[2]; 24 h at 37 °C,3.91 µg/mL
same,"MBC, minimum bactericidal concentration",[2],15.63 µg/mL
"H-KWKLFKKIGAVLKVL-NH2 [C(1–7)M(2–9), KWKLFKKIGAVLKVL-NH2, reference compound]","HC50, concentration of peptide that causes 50% hemolysis",[3],88.89 ± 4.62 µg/mL
same,antibacterial activity in the presence of proteinase K,"[4]; 24-h incubation, CM-10K14K at 31.25 and 62.5 µg/mL",lost its ability to kill bacteria
same,concentration inhibiting bacterial growth in the presence of proteinase K,[4]; 6 h of incubation,at least its MIC
same,"MIC, minimum inhibitory concentration",[2]; 24 h at 37 °C,7.81 µg/mL
same,"MBC, minimum bactericidal concentration",[2],7.81 µg/mL
"KWKLFKKIGKVLKVL-NH2 [CM-10K, KWKLFKKIGKVLKVL-NH2]","HC50, concentration of peptide that causes 50% hemolysis",[3],85.78 ± 9.01 µg/mL
same,"MIC, minimum inhibitory concentration",[2]; 24 h at 37 °C,3.91 µg/mL
same,"MBC, minimum bactericidal concentration",[2],7.81 µg/mL
"KWKLFKKIGKVLKKL-NH2 [CM-10K14K, KWKLFKKIGKVLKKL-NH2]","HC50, concentration of peptide that causes 50% hemolysis",[3],561.90 ± 88.19 µg/mL
same,MBC,[5],15.63 µg/mL
same,MIC,[5],7.81 µg/mL
same,MBC,[6],31.25 µg/mL
same,MIC,[6],31.25 µg/mL
same,MBC,[7],62.5 µg/mL
same,MIC,[7],15.63 µg/mL
same,MBC,[8],7.81 µg/mL
same,MIC,[8],7.81 µg/mL
same,MBC,[9],31.25 µg/mL
same,MIC,[9],15.63 µg/mL
same,viability at 24 h,[10]; at the MBC,92.9 ± 1.82%
same,"viability at 24 h, 3.91 μg/mL",[10]; at the MIC,100%
same,IC50 on L929 cells,[11],56.53 ± 1.84 µg/mL
same,"MIC, minimum inhibitory concentration",[2]; 24 h at 37 °C,3.91 µg/mL
same,"MBC, minimum bactericidal concentration",[2],7.81 µg/mL
"KWKLFKKIGAVLKVLA-NH2 [CM-A, KWKLFKKIGAVLKVLA-NH2]","HC50, concentration of peptide that causes 50% hemolysis",[3],42.58 ± 1.98 µg/mL
same,"MIC, minimum inhibitory concentration",[2]; 24 h at 37 °C,7.81 µg/mL
same,"MBC, minimum bactericidal concentration",[2],15.63 µg/mL
"VWKLFKKIGAVLKKL-NH2 [CM-1V14K, VWKLFKKIGAVLKKL-NH2]","HC50, concentration of peptide that causes 50% hemolysis",[3],131.70 ± 9.23 µg/mL
same,"MIC, minimum inhibitory concentration",[2]; 24 h at 37 °C,7.81 µg/mL
same,"MBC, minimum bactericidal concentration",[2],15.63 µg/mL
